Measurements from US6642271B2, “Potentiating compounds” (Ardenia Investments, Ltd., priority 2001, dated 2003).

What was measured:
[1] = tested on: human breast adenocarcinoma MDA-MB-231 cell line; assay: Cytotoxicity: cell growth inhibition in cultures, viable cells counted by trypan blue exclusion; format: cell-based; settings: for inhibition at 0.04 µM / inhibition at 1 µM / inhibition at 0.1 µM / inhibition at 0.01 µM / inhibition at 0.001 µM / inhibition at 0.0001 µM / inhibition at 10 pM: Homo sapiens; for Cell growth inhibition % Formulation: compound/paclitaxel formulations in saline; for Cell growth inhibition % OF W/SAB / Cell growth inhibition % OF SAB/W: dried compound/paclitaxel mixed-micellar system (OF); for Cell growth inhibition % OF W/SAB: freeze-dried as water solution, reconstituted with 0.05 M sodium acetate buffer; for Cell growth inhibition % OF SAB/W: freeze-dried in 0.05 M sodium acetate buffer, reconstituted with water
Method: The cell line was propagated by cultivation in Nunclon 25 cm^2 flasks (Nunc A/S, Denmark) in Minimum Essential Medium Eagle (MEM), containing antibiotics and supplemented with 10% (v/v) fetal bovine serum (FBS) (Sigma, St. Louis, Mo., USA). The cultures were maintained in growth medium at 37° C. in a humidified atmosphere, 95% air and 5% CO2.
A suspension of tumour cells (60×10^3 cells/mL) was prepared in MEM with 5% FBS and antibiotics. Cell suspension (200 μL) was seeded in wells of Nunclon 96-microwell plates (Nunc A/S, Denmark) at a density of 12×10^3 cell/well. The solutions of the drugs to be tested were added to the cultures on day 0 or day 1 in volumes of 2 μL. In all cases the cells were incubated for 3 days.
At the end of the incubation period, adherent cells were detached by trypsinization and the number of viable cells was counted using trypan blue dye exclusion test and a hemocytometer.
All experiments were performed at least twice and the cells counts were done in triplicate for each drug concentration. Each control and test series consisted of 6-8 cultures. The results are expressed as mean cell number ±SD and the differences between control and test series were evaluated by means of Student's t-test. The cytotoxicity of each tested drug was evaluated by the extent of cell growth inhibition. The Cell growth inhibition was evaluated as follows:
Cell growth inhibition, %=- - - ×100

[2] = Solubility of compounds and formulations; format: physicochemical; settings: for solubility in solvents: sodium salts
Method: The obtained solution can be stored for at least three months at low temperatures, without noticeable change in the properties of compound (I-VI). Moreover, the formulation retains its cytotoxic effects during prolonged storage. Before use, the solution is evaporated in vacuo to yield a waxy solid which is dissolved in saline or other commonly used vehicle for intravenous infusion to a patient. […] An ethanol solution is prepared of one of N-(all-trans-Retinoyl)-L-cysteic acid (I), N-(13-cis-Retinoyl)-L-cysteic acid (11), N-(all-trans-Retinoyl)-L-homocysteic acid (III), N-(13-cis-Retinoyl)-L-homocysteic acid (IV), N-(all-trans-Retinoyl)-L-cysteinesulfinic acid (V), or N-(13-cis-Retinoyl)-L-cysteinesulfinic acid (VI). The obtained solution is evaporated in vacuo to give waxy solid, whereupon Taxol® is added, dissolving the waxy solid. […]

[3] = MDA-MB-231, sodium salt in saline, final 4 × 10^−8 mol/L, day 1, three days
[4] = MDA-MB-231, sodium salt in saline, final 10^−6 mol/L (top of range 10^−11 M to 10^−6 M), day 1, three days
[5] = MDA-MB-231, sodium salt in saline, final 10^−7 mol/L, day 1, three days
[6] = MDA-MB-231, sodium salt in saline, final 10^−8 mol/L, day 1, three days
[7] = MDA-MB-231, sodium salt in saline, final 10^−9 mol/L, day 1, three days
[8] = MDA-MB-231, sodium salt in saline, final 10^−10 mol/L, day 1, three days
[9] = MDA-MB-231, sodium salt of the compound dissolved in saline (1 mg/ml), final concentration 10^−11 mol/L, day 1, three days
[10] = initial saline solution 0.005 mg/mL, final 40 nM in cultures, added day 1, three days of cultivation
[11] = initial saline solution 0.05 mg/mL, final 40 nM, day 1, three days
[12] = initial saline solution 0.5 mg/mL, final 40 nM, day 1, three days
[13] = initial saline solution 1.0 mg/mL, final 40 nM, day 1, three days
[14] = initial saline solution 5.0 mg/mL, final 40 nM, day 1, three days
[15] = sodium salt in saline, final 4 × 10^−8 mol/L, day 1, three days
[16] = sodium salt in saline, final 10^−6 mol/L (top of range 10^−11 M to 10^−6 M), day 1, three days
[17] = sodium salt in saline, final 10^−6 mol/L, day 1, three days
[18] = sodium salt in saline, final 10^−7 mol/L, day 1, three days
[19] = sodium salt in saline, final 10^−8 mol/L, day 1, three days
[20] = sodium salt in saline, final 10^−9 mol/L, day 1, three days
[21] = sodium salt in saline, final 10^−10 mol/L, day 1, three days
[22] = sodium salt of the compound dissolved in saline (1 mg/ml), final concentration 10^−11 mol/L, day 1, three days

CC1=C(/C=C/C(C)=C/C=C/C(C)=C/C(=O)N[C@@H](CS(=O)(=O)O)C(=O)O)C(C)(C)CCC1 [Compound I, N-(all-trans-Retinoyl)-L-cysteic acid]
inhibition at 0.04 µM ([1]; MDA-MB-231, compound alone 4 × 10^−8 mol/L (40 nM), added day 0, three days): 39.6%
inhibition at 0.04 µM ([1]; MDA-MB-231, dry substance, stock 1 mg/ml in saline, final 4 × 10^−8 mol/L, day 1, three days): 38.1%
inhibition at 1 µM ([1]; MDA-MB-231, dry substance, stock 1 mg/ml in saline, final 10^−6 mol/L, day 1, three days): 42.1%
inhibition at 0.1 µM ([1]; MDA-MB-231, dry substance, stock 1 mg/ml in saline, final 10^−7 mol/L, day 1, three days): 39.1%
inhibition at 0.01 µM ([1]; MDA-MB-231, dry substance, stock 1 mg/ml in saline, final 10^−8 mol/L, day 1, three days): 29.9%
inhibition at 0.001 µM ([1]; MDA-MB-231, dry substance, stock 1 mg/ml in saline, final 10^−9 mol/L, day 1, three days): 19.8%
inhibition at 0.0001 µM ([1]; MDA-MB-231, dry substance, stock 1 mg/ml in saline, final 10^−10 mol/L, day 1, three days): 18.6%
inhibition at 10 pM ([1]; MDA-MB-231, dry substance, stock 1 mg/ml in saline, final concentration 10^−11 mol/L, day 1, three days): 27.3%
inhibition at 0.04 µM [1, 3]: 46.8%
inhibition at 1 µM [1, 4]: 49.7%
inhibition at 0.1 µM [1, 5]: 48%
inhibition at 0.01 µM [1, 6]: 46.2%
inhibition at 0.001 µM [1, 7]: 39.7%
inhibition at 0.0001 µM [1, 8]: 36.5%
inhibition at 10 pM [1, 9]: 28.6%
cell growth inhibition ([1]; compound alone 4 × 10^−8 mol/L (40 nM), added day 0, three days, 0.04 µM): ~40%
number of living cells ([1]; compound alone 4 × 10^−8 mol/L, added day 0, three days): 16.3 ± 2.50 × 10^3
Cell growth inhibition % Formulation [1]: close to 75%
Cell growth inhibition % OF W/SAB [1]: close to 71%
Cell growth inhibition % OF SAB/W [1]: close to 72%
number of living cells ([1]; dry substance, stock 1 mg/ml in saline, final 4 × 10^−8 mol/L, day 1, three days): 30.9 ± 1.62 × 10^3
number of living cells ([1]; dry substance, stock 1 mg/ml in saline, final 10^−6 mol/L, day 1, three days): 28.9 ± 2.68 × 10^3
number of living cells ([1]; dry substance, stock 1 mg/ml in saline, final 10^−7 mol/L, day 1, three days): 30.4 ± 1.83 × 10^3
number of living cells ([1]; dry substance, stock 1 mg/ml in saline, final 10^−8 mol/L, day 1, three days): 35.0 ± 4.38 × 10^3
number of living cells ([1]; dry substance, stock 1 mg/ml in saline, final 10^−9 mol/L, day 1, three days): 40.0 ± 2.31 × 10^3
number of living cells ([1]; dry substance, stock 1 mg/ml in saline, final 10^−10 mol/L, day 1, three days): 40.6 ± 1.69 × 10^3
number of living cells ([1]; dry substance, stock 1 mg/ml in saline, final concentration 10^−11 mol/L, day 1, three days): 36.3 ± 3.82 × 10^3
cell growth inhibition [1, 10]: 33.3%
number of living cells [1, 10]: 33.3 ± 2.55 × 10^3
cell growth inhibition [1, 11]: 32.1%
number of living cells [1, 11]: 33.9 ± 2.78 × 10^3
cell growth inhibition [1, 12]: 31.5%
number of living cells [1, 12]: 34.2 ± 5.09 × 10^3
cell growth inhibition [1, 13]: 38.3%
number of living cells [1, 13]: 30.8 ± 3.53 × 10^3
cell growth inhibition [1, 14]: 27.7%
number of living cells [1, 14]: 36.1 ± 4.10 × 10^3
number of living cells [1, 15]: 31.2 ± 1.72 × 10^3
cell growth inhibition [1, 16]: ~50%
number of living cells [1, 17]: 29.5 ± 1.36 × 10^3
number of living cells [1, 18]: 30.5 ± 0.89 × 10^3
number of living cells [1, 19]: 31.6 ± 1.69 × 10^3
number of living cells [1, 20]: 35.4 ± 2.23 × 10^3
number of living cells [1, 21]: 37.3 ± 2.84 × 10^3
number of living cells [1, 22]: 41.9 ± 2.17 × 10^3
solubility in the commercially available Taxol® preparation [2]: excellent solubility
solubility in solvents [2]: soluble only in mixtures containing water

CC1=C(/C=C/C(C)=C/C=C/C(C)=C\C(=O)N[C@@H](CCS(=O)(=O)O)C(=O)O)C(C)(C)CCC1 [Compound IV, N-(13-cis-Retinoyl)-L-homocysteic acid]
inhibition at 0.04 µM [1, 3]: 29.6%
inhibition at 1 µM [1, 4]: 31.9%
inhibition at 0.1 µM [1, 5]: 31.1%
inhibition at 0.01 µM [1, 6]: 24.9%
inhibition at 0.001 µM [1, 7]: 17.3%
inhibition at 0.0001 µM [1, 8]: 16.1%
inhibition at 10 pM [1, 9]: 14.8%
Cell growth inhibition % Formulation [1]: close to 60%
Cell growth inhibition % OF W/SAB [1]: close to 62%
Cell growth inhibition % OF SAB/W [1]: close to 63%
number of living cells [1, 15]: 37.1 ± 2.56 × 10^3
cell growth inhibition [1, 16]: ~35%
number of living cells [1, 17]: 35.9 ± 2.29 × 10^3
number of living cells [1, 18]: 36.3 ± 2.08 × 10^3
number of living cells [1, 19]: 39.6 ± 2.74 × 10^3
number of living cells [1, 20]: 43.6 ± 3.21 × 10^3
number of living cells [1, 21]: 44.2 ± 3.35 × 10^3
number of living cells [1, 22]: 44.9 ± 3.02 × 10^3
solubility in the commercially available Taxol® preparation [2]: excellent solubility
solubility in solvents [2]: also dissolved in methanol and some methanol containing mixtures

CC1=C(/C=C/C(C)=C/C=C/C(C)=C/C(=O)N[C@@H](CS(=O)O)C(=O)O)C(C)(C)CCC1 [Compound V, N-(all-trans-Retinoyl)-L-cysteinesulfinic acid]
inhibition at 0.04 µM [1, 3]: 27.1%
inhibition at 1 µM [1, 4]: 29.8%
inhibition at 0.1 µM [1, 5]: 27.6%
inhibition at 0.01 µM [1, 6]: 24.3%
inhibition at 0.001 µM [1, 7]: 16.2%
inhibition at 0.0001 µM [1, 8]: 14.7%
inhibition at 10 pM [1, 9]: 13.3%
Cell growth inhibition % Formulation [1]: close to 55%
Cell growth inhibition % OF W/SAB [1]: close to 56%
Cell growth inhibition % OF SAB/W [1]: close to 58%
number of living cells [1, 15]: 39.6 ± 1.75 × 10^3
cell growth inhibition [1, 16]: ~30%
number of living cells [1, 17]: 38.1 ± 1.86 × 10^3
number of living cells [1, 18]: 39.3 ± 1.22 × 10^3
number of living cells [1, 19]: 41.1 ± 2.34 × 10^3
number of living cells [1, 20]: 45.5 ± 2.80 × 10^3
number of living cells [1, 21]: 46.3 ± 2.49 × 10^3
number of living cells [1, 22]: 47.1 ± 2.41 × 10^3
solubility in the commercially available Taxol® preparation [2]: excellent solubility
solubility in solvents [2]: soluble only in mixtures containing water
